This assay addresses T1, human factor Xa (Homo sapiens, UniProt P00742).
T1 construct: 25 μl human factor Xa (Enzyme Research Laboratories, Inc; South Bend, Ind.); purchased Enzyme Research Laboratories, Inc; South Bend, Ind
The experiment in a line: Factor Xa chromogenic assay (substrate S-2765). In kind it is biochemical. To be noted: read-out: Ki(FXa), inhibition constant for inhibition of factor Xa. Here is the method:
Purified enzymes are used in chromogenic assays.
The IC50 was determined by combining in appropriate wells of a Costar half-area microtiter plate 25 μl human factor Xa (Enzyme Research Laboratories, Inc.; South Bend, Ind.) in TBS-PEG; 40 μl 10% (v/v) DMSO in TBS-PEG (uninhibited control) or various concentrations of the compound to be tested diluted in 10% (v/v) DMSO in TBS-PEG; and substrate S-2765 (N(α)-benzyloxycarbonyl-D-Arg-Gly-L-Arg-p-nitroanilide; Kabi Pharmacia, Inc.; Franklin, Ohio) in TBS-PEG.
The assay was performed by pre-incubating the compound of formula I plus enzyme for 10 min. Then the assay was initiated by adding substrate to obtain a final volume of 100 μl. The initial velocity of chromogenic substrate hydrolysis was measured by the change in absorbance at 405 nm using a Bio-tek Instruments kinetic plate reader (Ceres UV900HDi) at 25° C. during the linear portion of the time course (usually 1.5 min after addition of substrate). The enzyme concentration was 0.5 nM and substrate concentration was 140 μM.

Setting [1] is: Ki calculated from IC50 corrected for substrate competition, 25° C., 0.5 nM enzyme, 140 μM substrate S-2765.

Read-outs that look alike come from different tables or passages of the source.

T1 sequence (P00742 235-488 limits assumed): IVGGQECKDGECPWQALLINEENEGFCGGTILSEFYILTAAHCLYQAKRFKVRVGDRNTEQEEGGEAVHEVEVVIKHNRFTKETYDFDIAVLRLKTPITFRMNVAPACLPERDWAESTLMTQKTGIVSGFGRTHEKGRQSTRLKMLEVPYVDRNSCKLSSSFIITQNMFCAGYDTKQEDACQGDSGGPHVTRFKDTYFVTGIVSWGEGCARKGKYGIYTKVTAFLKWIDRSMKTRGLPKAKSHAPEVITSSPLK
T1 sequence (P00742 41-179 partner limits assumed): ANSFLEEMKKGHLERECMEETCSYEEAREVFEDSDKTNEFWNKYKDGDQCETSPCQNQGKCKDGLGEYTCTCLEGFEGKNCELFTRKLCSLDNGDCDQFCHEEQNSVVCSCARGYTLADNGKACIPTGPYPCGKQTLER

What is called Ki is a dissociation constant, usually derived from enzyme kinetics or from competition with a known ligand. Take `COC(=O)[C@@H](NC(=O)c1cc(O)cc(OCCc2ccc(Cl)cc2Cl)c1)C1CCN(C(=N)N)CC1` [Example 1, (S)-(1-Carbamimidoyl-piperidin-4-yl)-{3-[2-(2,4-dichloro-phenyl)-ethoxy]-5-hydroxy-benzoylamino}-acetic acid methyl ester]: the inhibition constant Ki was found to be 2120 nM.
`N=C(N)N1CCC(CNC(=O)c2cc(O)c(Br)c(OCCc3ccc(Cl)cc3Cl)c2)CC1` [Example 2, 4-Bromo-N-(1-carbamimidoyl-piperidin-4-ylmethyl)-3-[2-(2,4-dichloro-phenyl)-ethoxy]-5-hydroxy-benzamide]: the inhibitory constant (Ki) was found to be 13.7 nM.
Take `Cc1c(O)cc(C(=O)NCC2CCN(C(=N)N)CC2)cc1OCCc1ccc(Cl)cc1Cl` [Example 3, N-(1-Carbamimidoyl-piperidin-4-ylmethyl)-3-[2-(2,4-dichloro-phenyl)-ethoxy]-5-hydroxy-4-methyl-benzamide]: the inhibitory constant (Ki) is 58.5 nM.
As for `N=C(N)N1CCC(CNC(=O)c2cc(O)cc(OCCc3ccc(Cl)cc3Cl)c2)CC1` [Example 4], the Ki worked out at 464 nM.
As for `COC(=O)[C@H](CC1CCN(C(=N)N)CC1)NC(=O)c1cc(O)c(C)c(OCCCc2ccc(Cl)cc2Cl)c1` [Example 6], the inhibition constant Ki worked out at 2280 nM.
`CC(=N)N1CCC(CNC(=O)c2ccc(C)c(OCCc3ccc(Cl)cc3Cl)c2)CC1` [Example 12, 3-[2-(2,4-Dichloro-phenyl)-ethoxy]-N-[1-(10-imino-ethyl)-piperidin-4-ylmethyl]-4-methyl-benzamide; compound with trifluoro-acetic acid]: under setting [1], the inhibition constant (Ki) was 140 nM.
For the compound `Cc1ccc(C(=O)NCC2CCN(C(=N)N)CC2)cc1OCCc1ccc(Cl)cc1Cl` [Example 13, N-(1-Carbamimidoyl-piperidin-4-ylmethyl)-3-[2-(2,4-dichloro-phenyl)-ethoxy]-4-methyl-benzamide; compound with trifluoro-acetic acid], the Ki under setting [1] was 173 nM.

The values above are taken from US7435747B2, “Guanidine and amidine derivatives as factor Xa inhibitors” (Sanofi-Aventis Deutschland GmbH, priority 2000, dated 2008).
